First: Cl.O=C1N(CCC2CCN(C3CCC3)CC2)c2ccccc2C12COc1cc3c(cc12)OCO3 (stereo not drawn)
Second: Cl.O=C1N(CCC2CCN(C3CCCC3)CC2)c2ccccc2C12COc1cc3c(cc12)OCO3 (stereo not drawn)
The melting point of the first is higher: 158 to 160 °C for the first, 153 to 155 °C for the second.

Compared with `Cl.O=C1N(CCC2CCN(C3CCOCC3)CC2)c2ccccc2C12COc1cc3c(cc12)OCO3` (stereo not drawn), `CC(C)N1CCC(CCN2C(=O)C3(COc4cc5c(cc43)OCO5)c3ccccc32)CC1.Cl` (stereo not drawn) is lower in melting point: 168 to 170 °C for the first, 155 to 156 °C for the second.

First: CC(C)N1CCC(CN2C(=O)C3(COc4cc5c(cc43)OCO5)c3cccc(F)c32)CC1.Cl (stereo not drawn)
Second: Cl.O=C1N(Cc2ccc(N3CCCC3)nc2)c2ccccc2C12COc1cc3c(cc12)OCO3 (stereo not drawn)
The melting point of the first is lower: 157 to 160 °C for the first, 160 to 165 °C for the second.

First: CC1(C)COc2cc3c(cc21)C1(CO3)C(=O)N(Cc2cccnc2)c2ccccc21.Cl (stereo not drawn)
Second: CC1(C)COc2cc3c(cc21)C1(CO3)C(=O)N(Cc2ccccn2)c2ccccc21.Cl (stereo not drawn)
The melting point of the first is lower: 124 to 126 °C for the first, 145 to 147 °C for the second.

First: CN(C)c1ccc(CN2C(=O)C3(COc4cc5c(cc43)OCO5)c3ccccc32)cn1.Cl (stereo not drawn)
Second: Cl.O=C1N(Cc2ccc(N3CCOCC3)nc2)c2ccccc2C12COc1cc3c(cc12)OCO3 (stereo not drawn)
The melting point of the first is lower: 146 to 150 °C for the first, 185 to 200 °C for the second.

Compared with `Cl.O=C1N(Cc2ccccn2)c2ccccc2C12COc1cc3c(cc12)CCO3` (stereo not drawn), `Cl.O=C1N(Cc2ccccn2)c2ccccc2C12COc1cc(OC(F)(F)F)ccc12` (stereo not drawn) is lower in melting point: 208 to 210 °C for the first, 150 to 152 °C for the second.

First: Cl.O=C1N(Cc2cccnc2)c2ccccc2C12COc1cc(OC(F)(F)F)ccc12 (stereo not drawn)
Second: Cl.O=C1N(Cc2ccc(C(F)(F)F)o2)c2ccccc2C12COc1ccc(-c3cccnc3)cc12 (stereo not drawn)
The melting point of the first is higher: 151 to 153 °C for the first, 98 to 100 °C for the second.

First: COC(=O)c1ccccc1CN1C(=O)C2(COc3cc4c(cc32)OCO4)c2ccccc21 (stereo not drawn) [Example 1.4, methyl 2-[(2′-oxospiro[furo[2,3-f][1,3]benzodioxole-7,3′-indol]-1′(2′H)-yl)methyl]benzoate]
Second: COc1cccc2c1C1(COc3cc4c(cc31)OCO4)C(=O)N2Cc1ccc(C(F)(F)F)o1 (stereo not drawn) [Example 1.53, 4′-methoxy-1′{[5-(trifluoromethyl)-2-furyl]methyl}spiro[furo[2,3-f][1,3]benzodioxole-7,3′-indol]-2′(1′H)-one]
The melting point of the first is higher: 166 to 167 °C for the first, 149 to 153 °C for the second.

First: CCCCCN1C(=O)C2(COc3cc(F)c(F)cc32)c2ccccc21 (stereo not drawn) [Example 1.12, 5,6-difluoro-1′-pentylspiro[1-benzofuran-3,3′-indol]-2′(1′H)-one]
Second: CCCCCN1C(=O)C2(COc3cc(F)c(Cl)cc32)c2ccccc21 (stereo not drawn) [Example 1.15, 5-chloro-6-fluoro-1′-pentylspiro[1-benzofuran-3,3′-indol]-2′(1′H)-one]
The melting point of the first is lower: 48 to 50 °C for the first, 74 to 76 °C for the second.

First: CC1(C)COc2cc3c(cc21)C1(CO3)C(=O)N(C(c2ccccc2)c2ccccc2)c2ccccc21 (stereo not drawn) [Example 1.20, 1′-(diphenylmethyl)-5,5-dimethyl-5,6-dihydrospiro[benzo[1,2-b:5,4-b′]difuran-3,3′-indol]-2′(1′H)-one]
Second: CC1(C)COc2cc3c(cc21)C1(CO3)C(=O)Nc2ccccc21 (stereo not drawn) [Example 1.21, 5,5-dimethyl-5,6-dihydrospiro[benzo[1,2-b:5,4-b′]difuran-3,3′-indol]-2′(1′H)-one]
The melting point of the first is higher: 190 to 192 °C for the first, 95 to 100 °C for the second.

First: CCCCCN1C(=O)C2(COc3cc4c(cc32)OCO4)c2c(Cl)ccc(Cl)c21 (stereo not drawn) [Example 1.22, 4′,7′-dichloro-1′-pentylspiro[furo[2,3-f][1,3]benzodioxole-7,3′-indol]-2′(1′H)-one]
Second: Cc1ccc2c(c1)C1(COc3cc4c(cc31)OCO4)C(=O)N2 (stereo not drawn) [Example 1.28, 5′-methylspiro[furo[2,3-f][1,3]benzodioxole-7,3′-indol]-2′(1′H)-one]
The melting point of the first is lower: 106 to 108 °C for the first, 269 to 271 °C for the second.

Compared with `O=C1N(Cc2ccc(C(F)(F)F)o2)c2ccc(F)cc2C12COc1cc3c(cc12)OCO3` (stereo not drawn) [Example 1.26, 5′-fluoro-1′-{[5-(trifluoromethyl)-2-furyl]methyl}spiro[furo[2,3-f][1,3]benzodioxole-7,3′-indol]-2′(1′H)-one], `O=C1N(Cc2ccc(C(F)(F)F)o2)c2ccccc2C12COc1ccc(Br)cc12` (stereo not drawn) [Example 1.33, 5-bromo-1′-{[5-(trifluoromethyl)-2-furyl]methyl}spiro[1-benzofuran-3,3′-indol]-2′(1′H)-one] is higher in melting point: 139 to 141 °C for the first, 143 to 145 °C for the second.

Compared with `CCCCCN1C(=O)C2(COc3cc4nc(C)sc4cc32)c2ccccc21` (stereo not drawn) [Example 1.32, 2-methyl-1′-pentylspiro[furo[2,3-f][1,3]benzothiazole-7,3′-indol]-2′(1′H)-one], `CCOC(=O)CN1C(=O)C2(COc3cc(F)c(F)cc32)c2c(Br)cccc21` (stereo not drawn) [Example 1.47, ethyl (4′-bromo-5,6-difluoro-2′-oxospiro[1-benzofuran-3,3′-indol]-1′(2′H)-yl)acetate] is higher in melting point: 105 to 107 °C for the first, 133 to 134 °C for the second.

Compared with `O=C1Nc2ccccc2C12COc1ccc(Br)cc12` (stereo not drawn) [Example 1.34, 5-bromospiro[1-benzofuran-3,3′-indol]-2′(1′H)-one], `O=C1Nc2ccccc2C12COc1cc(OC(F)(F)F)ccc12` (stereo not drawn) [Example 1.36, 6-(trifluoromethoxy)spiro[1-benzofuran-3,3′-indol]-2′(1′H)one] is lower in melting point: 225 to 228 °C for the first, 180 to 182 °C for the second.

Compared with `O=C1Nc2ccccc2C12COc1cc3c(cc12)CCO3` (stereo not drawn) [Example 1.51, 5,6-dihydrospiro[benzo[1,2-b:5,4-b′]difuran-3,3′-indol]-2′(1′H)-one], `O=C(O)CN1C(=O)C2(COc3cc4c(cc32)CCO4)c2c(Cl)cccc21` (stereo not drawn) [Example 2.2, (4′-chloro-2′-oxo-5,6-dihydrospiro[benzo[1,2-b:5,4-b′]difuran-3,3′-indol]-1′(2′H)-yl)acetic acid] is higher in melting point: 208 to 210 °C for the first, 228 to 229 °C for the second.

Compared with `O=C(CN1C(=O)C2(COc3cc4c(cc32)CCO4)c2c(Cl)cccc21)Nc1ccccc1F` (stereo not drawn) [Example 3.6, 2-(4′-chloro-2′-oxo-5,6-dihydrospiro[benzo[1,2-b:5,4-b′]difuran-3,3′-indol]-1′(2′H)-yl)-N-(2-fluorophenyl)acetamide], `O=C(CN1C(=O)C2(COc3cc4c(cc32)CCO4)c2cc(Cl)ccc21)Nc1ccccc1F` (stereo not drawn) [Example 3.7, 2-(5′-chloro-2′-oxo-5,6-dihydrospiro[benzo[1,2-b:5,4-b′]difuran-3,3′-indol]-1′(2′H)-yl)-N-(2-fluorophenyl)acetamide] is lower in melting point: 243 to 245 °C for the first, 229 to 230 °C for the second.

`O=C(CN1C(=O)C2(COc3cc(Cl)ccc32)c2ccccc21)Nc1ccccc1F` (stereo not drawn) [Example 3.8, 2-(6-chloro-2′-oxospiro[1-benzofuran-3,3′-indol]-1′(2′H)-yl)-N-(2-fluorophenyl)acetamide] showed a melting point of 70 to 75 °C.

For `Cl.O=C1N(CCN2CCCCC2)c2ccccc2C12COc1cc3c(cc12)OCO3` (stereo not drawn), the melting point was greater than 240 °C.
In the case of `O=C1Nc2ccccc2C12COc1cc3c(cc12)OCO3` (stereo not drawn) [Example 1.8, spiro[furo[2,3-f][1,3]benzodioxole-7,3′-indol]-2′(1′H)-one], the melting point is reported as 252 °C (dec.).
With `O=C1N(Cc2ccccn2)c2cccc(Br)c2C12COc1cc3c(cc12)CCO3` (stereo not drawn) [Example 1.25, 4′-bromo-1′-(pyridin-2-ylmethyl)-5,6-dihydrospiro[benzo[1,2-b:5,4-b′]difuran-3,3′-indol]-2′(1′H)-one] the melting point was greater than 200 °C.

From US8466188B2, “Use of spiro-oxindole compounds as therapeutic agents” (Xenon Pharmaceuticals Inc., priority 2006, dated 2013)
